Columns and labels:
Experiment in all cases: relative viability (nuclei count vs DMSO), 5 days (fraction); higher = more cells survive
NCI-H1793 = system: NCI-H1793
Method in brief: (§1)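 One day after seeding in 1536-well plates, lung cancer cell lines were dosed by pin tool. Dosing was either single-drug or a fixed anchor-drug dose plus five library-drug doses (not always all listed) in √10 steps. After 5 days, nuclei were stained in one fix-and-stain step and counted on 4× images, and relative viability is the nuclei count of treated wells over that of vehicle wells, given as the median of duplicate plates.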

LXF-289 = system: LXF-289
Method in brief: as §1

NCI-H1395 = system: NCI-H1395
Method in brief: as §1

NCI-H2228 = system: NCI-H2228
Method in brief: as §1

HOP-62 = system: HOP-62
Method in brief: as §1

LCLC-97TM1 = system: LCLC-97TM1
Method in brief: as §1

HCC-827 = system: HCC-827
Method in brief: as §1

NCI-H1437 = system: NCI-H1437
Method in brief: as §1

NCI-H1650 = system: NCI-H1650
Method in brief: as §1

HCC-44 = system: HCC-44
Method in brief: as §1

RERF-LC-KJ = system: RERF-LC-KJ
Method in brief: as §1

NCI-H322M = system: NCI-H322M
Method in brief: as §1

NCI-H2087 = system: NCI-H2087
Method in brief: as §1

NCI-H1944 = system: NCI-H1944
Method in brief: as §1

SK-LU-1 = system: SK-LU-1
Method in brief: as §1

CAL-12T = system: CAL-12T
Method in brief: as §1

LCLC-103H = system: LCLC-103H
Method in brief: as §1

NCI-H3122 = system: NCI-H3122
Method in brief: as §1

BEN = system: BEN
Method in brief: as §1

NCI-H647 = system: NCI-H647
Method in brief: as §1

201T = system: 201T
Method in brief: as §1

NCI-H2405 = system: NCI-H2405
Method in brief: as §1

`O=C(O)c1ccc(-c2c[nH]c3ncc(-c4ccccc4)cc23)cc1C1CCCC1` + Nc1nc2[nH]cc(CCc3ccc(C(=O)N[C@@H](CCC(=O)O)C(=O)O)cc3)c2c(=O)[nH]1 [Pemetrexed] (partner 0.2 µM) showed a relative viability (NCI-H1793; first compound 0.04 µM) of 0.83, a relative viability (NCI-H1793; first compound 0.1265 µM) of 1.19 and a relative viability (NCI-H1793; first compound 0.4 µM) of 0.865. It also gave a relative viability (NCI-H1793; first compound 1.265 µM) of 0.882, a relative viability (LXF-289; first compound 0.04 µM) of 0.912 and a relative viability (LXF-289; first compound 0.1265 µM) of 0.905. It also gave a relative viability (LXF-289; first compound 0.4 µM) of 0.786, a relative viability (LXF-289; first compound 1.265 µM) of 0.627 and a relative viability (NCI-H1395; first compound 0.04 µM) of 0.949. It also gave a relative viability (NCI-H1395; first compound 0.1265 µM) of 1.14, a relative viability (NCI-H1395; first compound 0.4 µM) of 0.774 and a relative viability (NCI-H1395; first compound 1.265 µM) of 0.858. It also gave a relative viability (NCI-H2228; first compound 0.04 µM) of 0.349, a relative viability (NCI-H2228; first compound 0.1265 µM) of 0.294 and a relative viability (NCI-H2228; first compound 0.4 µM) of 0.348. The relative viability (NCI-H2228; first compound 1.265 µM) was 0.29, the relative viability (HOP-62; first compound 0.04 µM) was 0.327 and the relative viability (HOP-62; first compound 0.1265 µM) was 0.389. For the same compound, the relative viability (HOP-62; first compound 0.4 µM) was 0.307, the relative viability (HOP-62; first compound 1.265 µM) was 0.351 and the relative viability (LCLC-97TM1; first compound 0.04 µM) was 0.196. It also gave a relative viability (LCLC-97TM1; first compound 0.1265 µM) of 0.204, a relative viability (LCLC-97TM1; first compound 0.4 µM) of 0.157 and a relative viability (LCLC-97TM1; first compound 1.265 µM) of 0.153. It also gave a relative viability (HCC-827; first compound 0.04 µM) of 0.198, a relative viability (HCC-827; first compound 0.1265 µM) of 0.28 and a relative viability (HCC-827; first compound 0.4 µM) of 0.287. For the same compound, the relative viability (HCC-827; first compound 1.265 µM) was 0.163, the relative viability (NCI-H1437; first compound 0.04 µM) was 0.338 and the relative viability (NCI-H1437; first compound 0.1265 µM) was 0.33. For the same compound, the relative viability (NCI-H1437; first compound 0.4 µM) was 0.311, the relative viability (NCI-H1437; first compound 1.265 µM) was 0.295 and the relative viability (NCI-H1650; first compound 0.04 µM) was 0.352. It also gave a relative viability (NCI-H1650; first compound 0.1265 µM) of 0.466, a relative viability (NCI-H1650; first compound 0.4 µM) of 0.383 and a relative viability (NCI-H1650; first compound 1.265 µM) of 0.33. For the same compound, the relative viability (HCC-44; first compound 0.04 µM) was 0.654, the relative viability (HCC-44; first compound 0.1265 µM) was 0.578 and the relative viability (HCC-44; first compound 0.4 µM) was 0.68. For the same compound, the relative viability (HCC-44; first compound 1.265 µM) was 0.598, the relative viability (RERF-LC-KJ; first compound 0.04 µM) was 0.466 and the relative viability (RERF-LC-KJ; first compound 0.1265 µM) was 0.469. It also gave a relative viability (RERF-LC-KJ; first compound 0.4 µM) of 0.481, a relative viability (RERF-LC-KJ; first compound 1.265 µM) of 0.481 and a relative viability (NCI-H322M; first compound 0.04 µM) of 0.632. It also gave a relative viability (NCI-H322M; first compound 0.1265 µM) of 0.586, a relative viability (NCI-H322M; first compound 0.4 µM) of 0.589 and a relative viability (NCI-H322M; first compound 1.265 µM) of 0.547. For the same compound, the relative viability (NCI-H2087; first compound 0.04 µM) was 0.576, the relative viability (NCI-H2087; first compound 0.1265 µM) was 0.652 and the relative viability (NCI-H2087; first compound 0.4 µM) was 0.653. It also gave a relative viability (NCI-H2087; first compound 1.265 µM) of 0.585, a relative viability (NCI-H1944; first compound 0.04 µM) of 0.692 and a relative viability (NCI-H1944; first compound 0.1265 µM) of 0.799. It also gave a relative viability (NCI-H1944; first compound 0.4 µM) of 0.69, a relative viability (NCI-H1944; first compound 1.265 µM) of 0.565 and a relative viability (SK-LU-1; first compound 0.04 µM) of 0.909. For the same compound, the relative viability (SK-LU-1; first compound 0.1265 µM) was 0.987, the relative viability (SK-LU-1; first compound 0.4 µM) was 0.882 and the relative viability (SK-LU-1; first compound 1.265 µM) was 0.548. The relative viability (CAL-12T; first compound 0.04 µM) was 1.15, the relative viability (CAL-12T; first compound 0.1265 µM) was 1.04 and the relative viability (CAL-12T; first compound 0.4 µM) was 1.1. For the same compound, the relative viability (CAL-12T; first compound 1.265 µM) was 1.09, the relative viability (LCLC-103H; first compound 0.04 µM) was 0.487 and the relative viability (LCLC-103H; first compound 0.1265 µM) was 0.463. The relative viability (LCLC-103H; first compound 0.4 µM) was 0.495, the relative viability (LCLC-103H; first compound 1.265 µM) was 0.481 and the relative viability (NCI-H3122; first compound 0.04 µM) was 0.204. The relative viability (NCI-H3122; first compound 0.1265 µM) was 0.202, the relative viability (NCI-H3122; first compound 0.4 µM) was 0.217 and the relative viability (NCI-H3122; first compound 1.265 µM) was 0.21. The relative viability (BEN; first compound 0.04 µM) was 0.598, the relative viability (BEN; first compound 0.1265 µM) was 0.862 and the relative viability (BEN; first compound 0.4 µM) was 0.792. It also gave a relative viability (BEN; first compound 1.265 µM) of 0.788, a relative viability (NCI-H647; first compound 0.04 µM) of 0.165 and a relative viability (NCI-H647; first compound 0.1265 µM) of 0.171. It also gave a relative viability (NCI-H647; first compound 0.4 µM) of 0.182, a relative viability (NCI-H647; first compound 1.265 µM) of 0.148 and a relative viability (201T; first compound 0.04 µM) of 0.342. The relative viability (201T; first compound 0.1265 µM) was 0.326, the relative viability (201T; first compound 0.4 µM) was 0.357 and the relative viability (201T; first compound 1.265 µM) was 0.343. It also gave a relative viability (NCI-H2405; first compound 0.04 µM) of 1.05, a relative viability (NCI-H2405; first compound 0.1265 µM) of 1.15 and a relative viability (NCI-H2405; first compound 0.4 µM) of 0.959. For the same compound, the relative viability (NCI-H2405; first compound 1.265 µM) was 0.648.

— the supplement of paper PMC10307832
